Reference: US20050020544A1, “Bicyclic CB2 cannabinoid receptor ligands” (priority 2002, published 2005)

Key:
[1] = tested on: TNF-α secretion from activated RAW 264.7 macrophages; assay: Inhibition of TNF-α in LPS activated macrophages (ELISA); assay type: cell-based, mouse; conditions: doses up to 20 μM
Source text: (§1) The technique used to quantify the amount of a given protein in a liquid sample, either tissue culture supernatant or body fluid, is based on Enzyme Linked ImmunoSorbent Assay (ELISA) methodology. Either commercially available or established in house, the assay is based on the capture of the protein of interest by specific antibodies bound to the bottom of an ELISA plate well. Unbound material is washed away, the captured protein is then exposed to a secondary antibody generally labeled with horseradish peroxidase (HRP) or alkaline phosphatase (ALP). Again the unbound material is washed away, the samples are then incubated with the appropriate substrate yielding a calorimetric reaction. The reaction is stopped and reading is performed in a spectrophotometer at the appropriate wavelength. Samples are tested at least in duplicate and the appropriate standard curve, consisting of serial dilutions of the recombinant target protein, is incorporated on each plate. Concentration of the protein in the sample is calculated from the standard curve.
(§2) RAW 264.7 macrophages, a mouse cell line (ATCC # TIB-71), were grown in Dulbecco's modified Eagle's medium (DMEM) with 4 mM L-glutamine adjusted to contain 1.5 g/L sodium bicarbonate, 4.5 g/L glucose, and 10% heat inactivated fetal bovine serum. Cells were grown in tissue culture flasks and seeded at appropriate density into 24 wells tissue culture plates. 0.5×10^6 Raw cells in one milliliter were stimulated with 2 μg/ml Lipopolysaccharide E. coli 055:B5 (DIFCO Laboratories). The mouse macrophages were pre-treated for one hour with controls or 10 μM of bicyclic CB2 ligands and later on activated with LPS. Dexamethasone was used as a positive control at 50 nM. Supernatant was collected 4 hours (for PGE2) and 24 hours (for IL-1β and TNF-α) after activation, and the levels of the inflammatory agent under study were determined by ELISA, as previously described. Inhibition was calculated versus vehicle treated cells.
The activation of the macrophages is performed as previously described. The levels of TNF-α are measured in an ELISA assay as previously described. Inhibition is calculated versus vehicle treated cells.

[2] = tested on: Male Sprague Dawley rats; assay: Inflammatory pain: carrageenan paw edema in rats, thermal and mechanical stimuli; assay type: in vivo, rat; conditions: 10 mg/kg i.p., three hours
Method: Male Sprague Dawley rats (200 g average body weight, Harlan, Israel) are transiently sedated by placement on dry ice for the duration of the injections. […] Before induction of inflammatory pain and three hours after injection, the animals reactions to pain stimuli were tested in two systems. The first stimulus was thermal and assessed by the Plantar Test according to Hargreaves, using Ugo Basile Model 7370. The scale was set to an intensity of 50 arbitrary units. The latency time till the animal lift a paw as a reaction to the thermal stimulus was recorded for both the inflamed and non-inflamed hind paws. The second stimulus was mechanical (tactile) and assessed using a Dynamic Plantar Sesthesiomether (Ugo Basile Model 73400-002).
The results are measured as the differences between the two hind paws at time 0 and 3 hours both as ALT, for the latency time in the thermal part of the study, and as ΔForce, for the mechanical part of the study.

[3] = tested on: PGE2 secretion from activated RAW 264.7 macrophages; assay: Inhibition of PGE2 in LPS activated macrophages (ELISA); assay type: cell-based, mouse; conditions: Mus musculus, RAW264.7; 4 hours after activation, doses 1 μM to 20 μM
Source text: as §1, §2
The activation of the macrophages is performed as previously described. The levels of PGE2 are measured in an ELISA assay as previously described. Inhibition is calculated versus vehicle treated cells. […] Results are depicted in FIG. 2B.

[4] = molecular target: T1, human CB2 receptor (Homo sapiens, UniProt P34972); assay: biochemical; assay type: binding; design: purchased Perkin Elmer/NEN; host or cells: CHO cells, stably transfected (membranes); conditions: for CB2/CB1 affinity ratio: IC50 CB1/IC50 CB2; for IC50: displacement of [3H]WIN 55212-2, hCB2 CHO membranes
T1 sequence (P34972 whole entry): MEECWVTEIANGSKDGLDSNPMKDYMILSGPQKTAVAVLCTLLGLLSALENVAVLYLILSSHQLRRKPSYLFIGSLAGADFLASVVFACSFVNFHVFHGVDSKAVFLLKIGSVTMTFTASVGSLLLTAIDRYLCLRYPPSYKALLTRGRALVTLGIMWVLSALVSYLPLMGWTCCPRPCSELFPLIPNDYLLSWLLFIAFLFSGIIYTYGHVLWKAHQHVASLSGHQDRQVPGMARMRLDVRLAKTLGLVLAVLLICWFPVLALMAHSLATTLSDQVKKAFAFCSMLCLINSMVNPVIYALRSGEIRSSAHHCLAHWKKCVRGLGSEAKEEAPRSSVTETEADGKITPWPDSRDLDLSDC
Method: (§3) In the present invention, binding affinity is represented by the IC50 value, namely the concentration of a test compound that will displace 50% of a radiolabeled agonist from the CB receptors. […] Preferably these ratios will be obtained for human CB1 and CB2 receptors. The selectivity toward CB2, denoted CB2/CB1 affinity, is calculated as the IC50 value obtained by the test compound for the displacement of the CB1 specific radioligand divided by the IC50 value obtained for the displacement of the CB2 specific radioligand, i.e. the IC50 CB1/IC50 CB2.
The affinities of the novel bicyclic analogs to the CB2 receptor were determined by their ability to displace [^3H]WIN 55212-2 from the receptor in membranes derived from hCB2 stably transfected CHO cells (Perkin Elmer/NEN). Membranes were diluted in assay buffer (10 mM HEPES, 1 mM MgCl2, 1 mM EDTA, 0.3 mg/ml BSA, pH=7.4) to 500 μg protein/ml. 50 μl of diluted membranes (25 μg) were incubated with 0.8 nM of [^3H]WIN 55212-2 in the presence or absence of several concentrations of the bicyclic test compounds in a total volume of 1 ml. Tested compounds were dissolved and diluted as previously described for the hCB1 assay. Non-specific binding was measured by the addition of 10 μM CP 55940. Following 40 minutes incubation at 30° C. reactions were filtered as previously described. Filters for all binding assays were counted in a β-counter and log of analog concentration versus % of binding was plotted. IC50 values were extrapolated from this plot.
(§4) Binding to CB1 is measured by competitive inhibition of [^3H]CP55940 in HEK-293 cells stably transfected with the human CB1 receptor gene. Binding to CB2 is measured by competitive inhibition of [^3H]WIN55212-2 in CHO cells stably transfected with the human CB2 receptor gene.

[5] = molecular target: T2, human CB1 receptor (Homo sapiens, UniProt P21554); assay: biochemical; assay type: binding; conditions: displacement of [3H]CP55940, hCB1 HEK-293 membranes; read-out: CB1 IC50
T2 construct: purchased Perkin Elmer/NEN; host or cells: HEK-293 cells, stably transfected (membranes)
T2 sequence (P21554 whole entry): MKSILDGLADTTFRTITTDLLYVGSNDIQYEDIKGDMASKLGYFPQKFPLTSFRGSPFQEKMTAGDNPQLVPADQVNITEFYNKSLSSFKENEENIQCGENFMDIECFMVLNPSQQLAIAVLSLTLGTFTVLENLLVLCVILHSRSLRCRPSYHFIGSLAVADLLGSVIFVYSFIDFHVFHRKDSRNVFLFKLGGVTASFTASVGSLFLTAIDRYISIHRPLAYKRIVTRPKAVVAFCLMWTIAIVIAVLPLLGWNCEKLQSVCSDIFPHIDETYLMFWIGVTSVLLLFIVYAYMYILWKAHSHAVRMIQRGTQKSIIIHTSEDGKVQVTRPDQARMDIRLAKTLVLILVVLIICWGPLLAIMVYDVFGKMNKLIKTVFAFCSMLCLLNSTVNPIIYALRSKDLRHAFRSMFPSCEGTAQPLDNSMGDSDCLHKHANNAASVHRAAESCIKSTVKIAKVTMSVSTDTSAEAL
Method: as §3
The CB1 binding assays were performed by testing the ability of the new compounds to displace [^3H]CP55940 from the CB1 receptor on membranes derived from hCB1 stably transfected HEK-293 cells (Perkin Elmer/NEN). Membranes were diluted in the assay buffer (50 mM Tris-HCl, 2.5 mM EDTA, 5 mM MgCl2, 1 mg/ml BSA, pH=7.4) to 500 μg protein/ml. 50 μl of diluted membranes (25 μg) were incubated with [^3H]CP55940 in the presence or absence of the bicyclic test compounds in a total volume of 0.5 ml. Tested compounds were dissolved in DMSO and diluted in the assay buffer to a final concentration of 0.1% solvent. Control samples were added with identical amount of vehicle. Non-specific binding was measured by the addition of 10 μM of WIN 55212-2. Following 1.5 hours incubation at 30° C. reactions were filtered through Whatman 934A/H filters (presoaked with 0.1% Polyethylenimine (PEI)).
as §4

[6] = tested on: ICR male mice; assay: Tail flick model for acute peripheral pain, i.p.; assay type: in vivo, mouse; conditions: 10 mg/kg i.p., 330 minutes (five and a half hours)
Method: ICR male mice (20-30 g average body weight, Harlan, Israel) were injected i.p. at the volume dose of 5 ml/kg. Each treatment group contained at least 6 animals. Morphine HCl was used as positive control at the final dose of 5 mg/kg. Its vehicle, saline, was also included as control. The test compounds were dissolved in CREMOPHOR EL®:ethanol and diluted 1:20 in saline prior to injection, this second type of vehicle was also included as negative control. The final dose injected varied from 0.1 to 10 mg/kg. At predetermined time points after treatment injection, the animals were placed in the tail flick system (Socrel, model DS 20). Animals were gently held while their tails were located above the photoelectric cell. The tails were then illuminated (21V) at 2 cm from the distal tip and the latency time, measured in seconds, was recorded in duplicates. At the end of the study, the animals were euthanized by i.p. injection of 100 mg/kg sodium pentobarbitone.
Two parameters were used to analyze the results, the latency time and the % of animals showing analgesia. […] The results in both cases are expressed as mean±SE. The differences between the latency times or the % of animals showing analgesia among various treatment groups was analyzed by analysis of variance (ANOVA) followed by post-hoc Tukey's test (for latency) or Fisher's exact test (for % animals). A value of p<0.05 is considered to be statistically significant.

[7] = molecular target: T1, human CB2 receptor; assay: Adenylylcyclase assay: forskolin-activated cAMP in CB2 transfected HEK-293 cells; assay type: cell-based; conditions: CB2 receptor transfected HEK-293, 1 μM forskolin
Method: Cannabinoids and derivatives bind to G-protein-coupled CB1 and CB2 receptors and exert their activity via the inhibition of adenylylcyclase activity. An adenylylcyclase assay forms a basis for the functional analysis of the compounds by determining their capacity to inhibit or promote forskolin-activated cAMP production. The assay is carried out according to Chin et al. (Chin, C. N. et al., J. Neurochem. 70: 366-73, 1998). Briefly, HEK-293 human kidney cells (ATCC#CRL-1573) stably transfected with either the human CB1 or CB2 receptor (cDNA) were grown in DMEM supplemented with 10% fetal calf serum, 1% Penicillin-Streptomycin and 2 mM L-glutamine. Cells were seeded in 24 wells plate at 5×10^4 cells/well and incubated for 48 hours. Medium was then removed and the adherent cells were washed with PBS. Two hundred μl of serum free medium supplemented with 0.2 mM Ro 20-1724, 0.25% BSA, and 20 mM HEPES was then added to each well. The cells were then activated with 1 μM forskolin in presence of the bicyclic test compounds in concentrations ranging from 10 pM up to 1 μM. The activated cells were then incubated at 37° C. for 20 minutes and the reaction terminated with 1.2 M HCl to a final concentration of 0.1 M. Cells were lyzed by freeze and thaw and the lysate was neutralized with 2 M HEPES, pH 7.5. cAMP was measured in 50 μl aliquots using the [^3H]-cAMP assay system (Amersham).
This experiment was first performed on CB2 receptor transfected cells.

[8] = tested on: Lewis rats; assay type: in vivo, rat; conditions: 30 mg/kg i.v., 5 times before the disease onset
Method: Various animal models of autoimmune encephalomyelitis are known in the art, depending on the method of induction, the strain of the animal and the antigen employed to induce the disease. The impact of bicyclic CB2 ligands was tested in EAE using Lewis rats in which the onset of disease is observed by the appearance of clinical symptoms about 10 days after induction. The disease progress and the clinical score increase and peak around day 15 and spontaneous recovery is observed around day 18 after induction of the disease. The animals (at least 9 per test group at initiation of study, except for the untreated control group that comprised only 5 rats) were maintained on a 12 hours light/12 hours dark regimen, at a constant temperature of 22° C., with food and water ad libitum. EAE was induced in these animals by immunization with s.c. injection to the hind paws of 25 μg of purified guinea pig myelin basic protein (MBP, Sigma) emulsified in 0.1 ml of Complete Freund's Adjuvant (Difco).
Methylprednisolone was used as positive control and it was administered daily for 5 consecutive days i.v. at 30 mg/kg starting from day of disease induction by MBP injection. The results are recorded as clinical score; score of 0 indicates a normal animal with no clinical signs, 0.5 indicates a loss of tonicity in the tail's distal part, 1 indicates whole tail paralysis, 2 indicates paraplegia, 3 indicates quadriplegia, 4 indicates complete body paralysis and moribund state and 5 indicates death. The clinical score of the animals is recorded for 11 days following onset of disease and the area under the curve (AUC) is calculated over this period of time.
Moreover, in a separate study animals were euthanized 15 days after induction of the disease by i.p. injection of 100 mg/kg pentobarbital. Brains and spinal cord were removed and were fixed by overnight incubation with 4% Paraformaldehyde. The cervical segment of the spinal cord was dehydrated using ethanol solutions of increasing concentration and then embedded in paraplast. The spinal cord was then sectioned (10 μm) and staining was performed using hematoxylin and eosin. The stained slides were examined under light microscopy for foci of infiltrating lymphocytes. Number of foci were counted and averaged in 6 sections for each animal. Three groups of at least 4 animals each were tested in this system: untreated, vehicle treated, and animals treated with 0.5 mg/kg of compound A. Results are expressed as average±SD of number of foci.

Compound | effect on TNF-α secretion [1] | ΔForce (tactile stimulus) [2] | ΔLT (thermal stimulus) [2] | IC50 [3] | CB2/CB1 affinity ratio [4] | IC50 [4] | IC50 [5] | % animals showing increased analgesia [6] | latency time [6] | IC50 ([7]; read-out: IC50 inhibition of cAMP level) | inhibition at 1 µM ([7]; HEK293, read-out: % inhibition at 1 μM) | reduction in the AUC of the clinical score [8]
CC(C)(CCCCBr)c1cc(O)c(C2CC(=O)C3CC2C3(C)C)c(O)c1 (single isomer, unassigned; (-)) [Compound N, (−)-4-[4-(5-Bromo-1,1-Dimethyl-pentyl)-2,6-dihydroxy-phenyl]-6,6-dimethyl-bicyclo[3.1.1]heptan-2-one] | none of them did significantly affect TNF-α secretion | 6 g | 2 s | 7000 nM | 139 | 0.36 nM | 50 nM | about 60% | 5.4 s | – | – | –
CC(C)(CCCCC#N)c1cc(O)c([C@H]2CC(=O)[C@H]3C[C@@H]2C3(C)C)c(O)c1 [Compound P, (−)-4-[4-(1,1-Dimethyl-pentyl-5-nitrile)-2,6-dihydroxy-phenyl]-6,6-dimethyl-bicyclo[3.1.1]heptan-2-one] | none of them did significantly affect TNF-α secretion | – | – | 18000 nM | 146 | 1.55 nM | 227 nM | – | – | – | – | –
CCCCCCC(C)(C)c1cc(OC(=O)CCC(=O)O)c([C@H]2CC(=O)[C@H]3C[C@@H]2C3(C)C)c(OC(=O)CCC(=O)O)c1 [Compound S, 4-{4-[1,1-Dimethyl-heptyl]-2,6-bisuccinate-phenyl}-6,6-dimethyl-bicyclo[3.1.1]heptan-2-one] | – | – | – | – | 77 | 1.52 nM | 117 nM | – | – | 0.16 nM | 58% | –
C[C@H]1C[C@@H]2[C@H]([C@@H](O)C[C@@]3(C)[C@H]2CC[C@]3(O)C(=O)CO)[C@@]2(C)C=CC(=O)C=C12 [Methylprednisolone, reference compound] | – | – | – | – | – | – | – | – | – | – | – | 34%
